Measured values published in paper PMC7293270 (Scientific Reports, 2020).
Like-named read-outs stand apart in the source and are kept apart here.

Tests used:
P-gp = test: Rho-123 transport assay (flow cytometry) for P-gp activity with RT and NF-κB inhibitor SN50; type: cell-based; conditions: Huh-7, 20 μM Rho-123
Procedure: In brief, Huh-7 cells were seeded in a 6-well plate. RT0Gy, RT2Gy, or RT9Gy was applied. At 1 hr or 24 hr after RT, ketoconazole (a P-gp inhibitor), digoxin (a P-gp substrate) and DMSO were added to the corresponding wells and incubated at 37 °C. The existing medium was replaced with 20 μM Rho-123 solution and incubated for 1 hr. Then, the cells were analyzed (10000 cells/sample) to measure Rho-123 accumulation with a FACSCalibur flow cytometer (excitation (Ex) = 515 nm, emission (Em) = 545 nm; Becton Dickinson, San Jose, CA, USA). The data were analyzed with CellQuest software (Becton Dickinson, San Jose, CA, USA).
The peptide SN50 inhibits nuclear translocation of NF-κB. SN50M was used as a negative control. In brief, Huh-7 cells were pretreated with 20 μM SN50 or SN50M (Enzo Life Sciences, Inc., Farmingdale, NY, USA) for 1 hr and were then irradiated. At 1 hr or 24 hr after RT, the existing medium was replaced with 20 μM Rho-123 and incubated for 1 hr. The cells were analyzed (10000 cells/sample) to measure Rho-123 accumulation with a FACSCalibur flow cytometer (Ex = 515 nm, Em = 545 nm; Becton Dickinson, San Jose, CA, USA). The data were analyzed with CellQuest software (Becton Dickinson, San Jose, CA, USA).

[1] = Biliary excretion pharmacokinetics of Rho-123 after RT in freely moving rats; type: in vivo, Sprague-Dawley rats; conditions: for AUC(0-t) / Cmax / MRT / Tmax / clearance / half-life: Sprague-Dawley, rat, bile, iv, 0.2 mg/kg, biliary excretion; for half-life: read-out: t½
Procedure: A freely moving rat model was designed for the current study[21] (Fig. 1A). Experimental rats were anesthetized with 1 g/mL urethane and 0.1 g/mL α-chloralose (1 mL/kg by intraperitoneal [i.p.] injection), and polyethylene tubes were then implanted in the right jugular vein for intravenous (i.v.) fluid administration. The right jugular vein was catheterized for blood sampling. The catheter traversed the subcutaneous tissue and was fixed in the dorsal neck region. After surgery, the rats were placed in an experimental cage and allowed to recover for 1 day. During the recovery period, the rats were kept warm under a light. Then, the rats were anesthetized and immobilized on a board while undergoing CT for localization of the whole liver (conventional technique, Fig. 1B) or a central area of 1.5 × 1.5 cm (SBRT technique, Fig. 1C). […] An equal volume of methanol was added to 100-μL aliquots of bile and plasma sample specimens for deproteinization. The mixture was vortexed for 15 s and centrifuged at 12000 × g for 10 min.

[2] = RT2Gy, Rho-123 10 min later (concurrent)
[3] = RT2Gy, Rho-123 24 hr later (sequential)
[4] = RT9Gy, Rho-123 10 min later (concurrent)
[5] = RT9Gy, Rho-123 24 hr later (sequential)
[6] = sham RT, Rho-123 0.2 mg/kg i.v., rats

AUC(0-t) ([1]; RT2Gy, Rho-123 0.2 mg/kg i.v. 10 min later (concurrent)): 3170 ng·h/mL | AUC(0-t) ([1]; RT2Gy, Rho-123 0.2 mg/kg i.v. 24 hr later (sequential)): 1920 ng·h/mL | Cmax [1, 2]: 3560 ± 1930 ng/mL | MRT [1, 2]: 66 min | Tmax [1, 2]: 11 min | clearance [1, 2]: 0.92 ± 0.23 mL/min/kg | half-life [1, 2]: 46 ± 13 min | Cmax [1, 3]: 2240 ± 570 ng/mL | MRT [1, 3]: 47 min | Tmax [1, 3]: 9 min | clearance [1, 3]: 1.73 ± 0.61 mL/min/kg | half-life [1, 3]: 32 ± 8 min | AUC(0-t) ([1]; RT9Gy, Rho-123 0.2 mg/kg i.v. 10 min later (concurrent)): 2710 ng·h/mL | AUC(0-t) ([1]; RT9Gy, Rho-123 0.2 mg/kg i.v. 24 hr later (sequential)): 1660 ng·h/mL | Cmax [1, 4]: 2860 ± 830 ng/mL | MRT [1, 4]: 66 min | Tmax [1, 4]: 11 min | clearance [1, 4]: 1.07 ± 0.33 mL/min/kg | half-life [1, 4]: 43 ± 6 min | Cmax [1, 5]: 2070 ± 750 ng/mL | MRT [1, 5]: 50 min | Tmax [1, 5]: 13 min | clearance [1, 5]: 1.91 ± 0.56 mL/min/kg | half-life [1, 5]: 34 ± 9 min | AUC(0-t) [1, 6]: 1880 ng·h/mL | Cmax [1, 6]: 2010 ± 600 ng/mL | MRT [1, 6]: 61 min | Tmax [1, 6]: 14 min | clearance [1, 6]: 1.56 ± 0.3 mL/min/kg | half-life [1, 6]: 42 ± 13 min | Increase in AUC of biliary excretion ([1]; concurrent RT2Gy compared to sham group): 69.0% | Increase in AUC of biliary excretion ([1]; concurrent RT9Gy compared to sham group): 44.2% | Decrease in AUC of biliary excretion ([1]; sequential RT2Gy compared to concurrent RT2Gy): 39.5% | Decrease in AUC of biliary excretion ([1]; sequential RT9Gy compared to concurrent RT9Gy): 38.6%
Compound: COC(=O)c1ccccc1-c1c2ccc(=N)cc-2oc2cc(N)ccc12 [Rho-123, rhodamine 123]
Rho-123 intensity (P-gp; concurrent RT2Gy): 99.2 ± 2.2 | Rho-123 intensity (P-gp; concurrent RT9Gy): 93.6 ± 3.4 | Rho-123 intensity (P-gp; sequential RT2Gy): 103.8 ± 0.6 | Rho-123 intensity (P-gp; sequential RT9Gy): 118.4 ± 0.9
